Test results taken from patent US10889592B2, “Thienopyrazine carboxamides as ubiquitin-specific protease inhibitors” (VALO EARLY DISCOVERY, INC., priority 2016, dated 2021).
pIC50: −log10 of the molar value.

What was measured:
USP28 = USP28 (Homo sapiens (Human), UniProt Q96RU2); assay: Ubiquitin-Rhodamine 110 Assay for USP28 Activity; format: biochemical; conditions: Ub-Rh110 substrate 25 nM, fluorescence readout
Procedure: Each assay was performed in a final volume of 20 μL in assay buffer containing 20 mM Tris-HCl (pH 8.0, (1M Tris-HCl, pH 8.0 solution; Corning 46-031-CM)), 2 mM CaCl2) (1M Calcium Chloride solution; Sigma #21114) 2 mM BME (2-Mercaptoethanol; Sigma 63689-25ML-F), 0.01% Prionex (0.22 μM filtered, Sigma # G-0411), and 0.01% Triton X-100. Stock compound solutions were stored at −20° C. as 10 mM in DMSO. Up to 1 month prior to the assay, 2 mM test compounds were pre-dispensed into assay plates (Black, low volume; Corning #3820) and frozen at −20° C. Prestamped assay plates were allowed to come to room temperature on the day of the assay. For the screen, 100 nL of 2 mM was pre-dispensed for a final screening concentration of 10 μM (DMSO(fc)=0.5%). Enzyme (USP28, construct USP28 (USP28-5(1-1077)-TEV-6*His; LifeSensors) concentration and incubation times were optimized for the maximal signal-to-background while maintaining initial velocity conditions at a fixed substrate concentration. The final concentration of the enzyme in the assay was 400 pM. Final substrate (Ub-Rh110; Ubiquitin-Rhodamine 110, R&D Systems # U-555) concentration was 25 nM with [Ub-Rh110]<<Km. 10 μL of 2× enzyme was added to assay plates (pre-stamped with compound) either simultaneously with 2×Ub-Rh110 or preincubated with USP28 40 minutes prior to the addition of 10 μL of 2×Ub-Rh110 to compound plates. Plates were incubated stacked for 90 minutes at room temperature before fluorescence was read on the Envision (Excitation at 485 nm and Emission at 535 nm; Perkin Elmer) or on the PheraSTAR (Excitation at 485 nm and Emission at 535 nm; BMG Labtech).
For follow-up studies, Each assay was performed in a final volume of 15 μL in assay buffer containing 20 mM Tris-HCl (pH 8.0, (1M Tris-HCl, pH 8.0 solution; Corning 46-031-CM)), 3 mM BME (2-Mercaptoethanol; Sigma 63689-25ML-F), 0.03% BGG ([…] filtered, Sigma, G7516-25G), and 0.01% Triton X-100 (Sigma, T9284-10L). Nanoliter quantities of either an 8-point or 10-point, 3-fold serial dilution in DMSO was pre-dispensed into assay plates (Perkin Elmer, ProxiPlate-384 F Plus, #) for a final test concentration of either 25 μM to 11 nM or 25 μM to 1.3 nM, respectively. Enzyme USP28, construct USP28 (USP28-5(1-1077)-TEV-6*His; LifeSensors) concentration and incubation times were optimized for the maximal signal-to-background while maintaining initial velocity conditions at a fixed substrate concentration. The final concentration of the enzyme in the assay was 75 pM. Final substrate (Ub-Rh110; Ubiquitin-Rhodamine 110, R&D Systems # U-555) concentration was 25 nM with [Ub-Rh110]<<Km. 5 μL of 2× enzyme was added to assay plates (pre-stamped with compound) preincubated with USP28 for 30 minutes and then 5 μL of 2×Ub-Rh110 was added to assay plates. Plates were incubated stacked for 20 minutes at room temperature before 5 μL of stop solution was added (final concentration of 10 mM citric acid (Sigma, 251275-500G)). Fluorescence was read on the Envision (Excitation at 485 nm and Emission at 535 nm; Perkin Elmer) or on the PheraSTAR (Excitation at 485 nm and Emission at 535 nm; BMG Labtech).
(§1) For both the USP28 and USP25 assay formats Data were reported as percent inhibition compared with control wells based on the following equation: % inh=1−((FLU−AveLow)/(AveHigh−AveLow)) where FLU=measured Fluorescence, AveLow=average Fluorescence of no enzyme control (n=16), and AveHigh=average Fluorescence of DMSO control (n=16). IC50 values were determined by curve fitting of the standard 4 parameter logistic fitting algorithm included in the Activity Base software package: IDBS XE Designer Model205. Data is fitted using the Levenburg Marquardt algorithm.

USP25 = USP25 (Homo sapiens (Human), UniProt Q9UHP3); assay: Ubiquitin-Rhodamine 110 Assay for USP25 Activity; format: biochemical; conditions: Ub-Rh110 substrate 25 nM, fluorescence readout
Procedure: The assay was performed in a final volume of 9 μL in assay buffer containing 20 mM Tris-HCl (pH 8.0, (1M Tris-HCl, pH 8.0 solution; Corning 46-031-CM)), 3 mM BME (2-Mercaptoethanol; Sigma 63689-25ML-F), 0.03% BGG ([…] filtered. Sigma, G7516-25G), and 0.01% Triton X-100 (Sigma, T9284-10L). Nanoliter quantities of 10-point, 3-fold serial dilution in DMSO was pre-dispensed into 1536 assay plates (Corning, #3724BC) for a final test concentration of 25 μM to 1.3 nM, top to lowest dose, respectively. Enzyme USP25, construct USP25-His6, (Boston Biochem E-546). Concentration and incubation times were optimized for the maximal signal-to-background while maintaining initial velocity conditions at a fixed substrate concentration. The final concentration of the enzyme in the assay was 75 pM. Final substrate (Ub-Rh110 Ubiquitin-Rhodamine 110, R&D Systems # U-555) concentration was 25 nM with [Ub-Rh110]<<Km. 3 μL of 2× enzyme was added to assay plates (pre-stamped with compound) preincubated with […] for 30 minutes and then 3 μL of 2×Ub-Rh110 was added to assay plates. Plates were incubated for 45 minutes at room temperature before addition of 3 μL of stop solution (final concentration of 10 mM citric acid (Sigma, 251275-500G)). Fluorescence was read on the Envision (Excitation at 485 nm and Emission at 535 nm; Perkin Elmer) or on the PheraSTAR (Excitation at 485 nm and Emission at 535 nm; BMG Labtech).
as §1

USP25, sequence (Q9UHP3 whole entry): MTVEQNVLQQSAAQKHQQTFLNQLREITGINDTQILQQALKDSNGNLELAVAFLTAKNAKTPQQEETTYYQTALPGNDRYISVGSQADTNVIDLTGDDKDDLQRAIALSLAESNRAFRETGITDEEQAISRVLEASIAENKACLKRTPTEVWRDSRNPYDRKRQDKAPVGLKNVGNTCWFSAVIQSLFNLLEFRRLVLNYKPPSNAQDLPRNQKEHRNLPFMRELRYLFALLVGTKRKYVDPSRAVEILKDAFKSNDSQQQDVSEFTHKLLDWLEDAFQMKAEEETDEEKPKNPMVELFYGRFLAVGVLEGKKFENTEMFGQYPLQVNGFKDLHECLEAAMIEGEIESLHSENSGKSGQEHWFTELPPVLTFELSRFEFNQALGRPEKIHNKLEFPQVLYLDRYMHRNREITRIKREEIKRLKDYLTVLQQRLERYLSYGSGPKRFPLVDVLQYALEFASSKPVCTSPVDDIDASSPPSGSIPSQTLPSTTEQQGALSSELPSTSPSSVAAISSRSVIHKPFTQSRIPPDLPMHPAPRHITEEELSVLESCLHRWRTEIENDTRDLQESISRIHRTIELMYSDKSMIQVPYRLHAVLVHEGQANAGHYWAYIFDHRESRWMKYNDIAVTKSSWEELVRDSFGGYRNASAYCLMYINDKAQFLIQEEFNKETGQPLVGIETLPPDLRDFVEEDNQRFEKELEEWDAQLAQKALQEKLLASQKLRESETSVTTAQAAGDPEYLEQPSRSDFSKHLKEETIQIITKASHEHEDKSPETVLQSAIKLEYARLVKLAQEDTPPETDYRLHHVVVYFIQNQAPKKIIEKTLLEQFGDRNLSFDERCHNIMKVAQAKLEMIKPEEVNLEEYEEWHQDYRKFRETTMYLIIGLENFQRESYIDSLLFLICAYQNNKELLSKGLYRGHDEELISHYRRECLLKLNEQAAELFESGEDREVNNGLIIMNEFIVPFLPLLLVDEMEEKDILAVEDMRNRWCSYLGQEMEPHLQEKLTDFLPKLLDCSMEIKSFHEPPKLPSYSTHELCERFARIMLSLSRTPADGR
USP28, sequence (Q96RU2 whole entry): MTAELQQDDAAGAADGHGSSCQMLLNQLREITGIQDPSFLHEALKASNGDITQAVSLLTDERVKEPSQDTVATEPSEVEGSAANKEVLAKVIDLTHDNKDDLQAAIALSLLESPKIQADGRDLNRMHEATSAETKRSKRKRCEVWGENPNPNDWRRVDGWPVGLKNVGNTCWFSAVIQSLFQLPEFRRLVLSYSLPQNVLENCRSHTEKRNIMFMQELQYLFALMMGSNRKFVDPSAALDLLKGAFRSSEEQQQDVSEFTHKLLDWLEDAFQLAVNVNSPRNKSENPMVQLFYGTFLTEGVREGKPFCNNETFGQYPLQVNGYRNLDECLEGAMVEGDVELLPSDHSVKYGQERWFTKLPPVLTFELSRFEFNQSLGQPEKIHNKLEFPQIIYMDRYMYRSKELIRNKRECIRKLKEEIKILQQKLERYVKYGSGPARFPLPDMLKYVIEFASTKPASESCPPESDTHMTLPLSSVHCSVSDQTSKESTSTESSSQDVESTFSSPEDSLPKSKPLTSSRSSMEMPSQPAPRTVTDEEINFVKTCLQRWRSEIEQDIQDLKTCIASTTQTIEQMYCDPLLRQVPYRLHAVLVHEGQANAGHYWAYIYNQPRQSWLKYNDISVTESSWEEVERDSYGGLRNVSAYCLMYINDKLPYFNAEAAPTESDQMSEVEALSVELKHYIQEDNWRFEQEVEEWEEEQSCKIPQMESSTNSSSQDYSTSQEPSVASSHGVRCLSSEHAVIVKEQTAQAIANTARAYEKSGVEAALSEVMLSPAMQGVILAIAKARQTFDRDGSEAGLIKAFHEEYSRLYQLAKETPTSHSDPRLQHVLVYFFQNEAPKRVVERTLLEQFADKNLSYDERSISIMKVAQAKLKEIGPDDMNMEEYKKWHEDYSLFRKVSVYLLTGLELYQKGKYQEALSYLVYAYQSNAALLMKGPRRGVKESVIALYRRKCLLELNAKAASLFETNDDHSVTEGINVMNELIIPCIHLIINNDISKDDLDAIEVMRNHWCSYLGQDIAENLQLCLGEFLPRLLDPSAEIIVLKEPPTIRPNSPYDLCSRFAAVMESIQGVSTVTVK

## Cc1cnc2c(N)c(C(=O)NCCc3ccc(N4CC5CCC(C4)N5)c(C#N)c3)sc2n1 [Compound I-9]
USP28
  pIC50: 5.70 to 6.70
USP25
  pIC50: 5.70 to 6.70

## Cc1cnc2c(N)c(C(=O)NC[C@H](C)c3cc(F)c(N4CC5CCC(C4)N5)cc3F)sc2n1 (single isomer, unassigned) [Compound I-15]
USP28
  pIC50: > 6.70
USP25
  pIC50: 5.00 to 5.70

## Cc1cnc2c(N)c(C(=O)NCCc3cc(F)c(N4CC5CCC(C4)N5)cc3F)sc2n1 [Compound I-7, N-(4-(3,8-diazabicyclo[3.2.1]octan-3-yl)-2,5-difluorophenethyl)-7-amino-3-methylthieno[2,3-b]pyrazine-6-carboxamide]
USP28
  pIC50: > 6.70
USP25
  pIC50: 5.70 to 6.70

## Cc1cnc2c(N)c(C(=O)NC[C@@H](C)c3cc(F)c(N4CC5CCC(C4)N5)cc3F)sc2n1 (single isomer, unassigned) [Compound I-14]
USP28
  pIC50: 5.00 to 5.70

## Cc1cnc2c(N)c(C(=O)NCCc3ccc(N4CCNCC4)c(Cl)c3)sc2n1 [Compound I-2]
USP28
  pIC50: 5.70 to 6.70

## Cc1cnc2c(N)c(C(=O)NCCc3c(F)cc(N4CC5CNCC(C4)O5)cc3F)sc2n1 [Compound I-20]
USP28
  pIC50: > 6.70
USP25
  pIC50: > 6.70

## Cc1cnc2c(N)c(C(=O)NC[C@@H](C)c3cc(F)c(N4CC5CNCC(C4)O5)cc3F)sc2n1 (single isomer, unassigned) [Compound I-21]
USP28
  pIC50: 5.70 to 6.70
USP25
  pIC50: 5.70 to 6.70

## Cc1cnc2c(N)c(C(=O)NC[C@@H](C)c3ccc(N4CC5CCC(C4)N5)c(F)c3)sc2n1 (single isomer, unassigned) [Compound I-12]
USP28
  pIC50: 5.70 to 6.70
USP25
  pIC50: 5.00 to 5.70

## Cc1cnc2c(N)c(C(=O)NC[C@@H](C)c3ccc(N4CC5CCC(C4)N5)c(C#N)c3)sc2n1 (single isomer, unassigned) [Compound I-18]
USP28
  pIC50: 5.00 to 5.70
USP25
  pIC50: 5.00 to 5.70

## Cc1cnc2c(N)c(C(=O)NC[C@@H](C)c3ccc(N4CC5CCC(C4)N5)cc3F)sc2n1 (single isomer, unassigned) [Compound I-16]
USP28
  pIC50: 5.70 to 6.70
USP25
  pIC50: 5.70 to 6.70

## Cc1cnc2c(N)c(C(=O)NCCc3ccc(N4CCNCC4)cc3)sc2n1 [Compound I-1, 7-Amino-3-methyl-N-(4-(piperazin-1-yl)phenethyl)thieno[2,3-b]pyrazine-6-carboxamide]
USP28
  pIC50: 5.70 to 6.70

## Cc1cnc2c(N)c(C(=O)NCCc3cc(F)c(N4CCNCC4)cc3F)sc2n1 [Compound I-4]
USP28
  pIC50: 5.70 to 6.70
USP25
  pIC50: 5.00 to 5.70

## Cc1cnc2c(N)c(C(=O)NCCc3ccc(N4CC5CCC(C4)N5)cc3F)sc2n1 [Compound I-10]
USP28
  pIC50: > 6.70
USP25
  pIC50: 5.70 to 6.70

## Cc1cnc2c(N)c(C(=O)NCCc3ccc(N4CC5CCC(C4)N5)c(Cl)c3)sc2n1 [Compound I-3, N-(4-(3,8-diazabicyclo[3.2.1]octan-3-yl)-3-chlorophenethyl)-7-amino-3-methylthieno[2,3-b]pyrazine-6-carboxamide]
USP28
  pIC50: > 6.70

## Cc1cnc2c(N)c(C(=O)NC[C@H](C)c3cc(F)c(N4CC5CNCC(C4)O5)cc3F)sc2n1 (single isomer, unassigned) [Compound I-22]
USP28
  pIC50: 5.70 to 6.70
USP25
  pIC50: 5.70 to 6.70

## Cc1cnc2c(N)c(C(=O)NC[C@H](C)c3ccc(N4CC5CCC(C4)N5)cc3F)sc2n1 (single isomer, unassigned) [Compound I-17]
USP28
  pIC50: 5.70 to 6.70
USP25
  pIC50: 5.00 to 5.70

## Cc1cnc2c(N)c(C(=O)NC[C@H](C)c3ccc(N4CC5CCC(C4)N5)c(C#N)c3)sc2n1 (single isomer, unassigned) [Compound I-19]
USP28
  pIC50: 5.00 to 5.70
USP25
  pIC50: 5.00 to 5.70

## Cc1cnc2c(N)c(C(=O)NCCc3c(F)cc(N4CC5CCC(C4)N5)cc3F)sc2n1 [Compound I-11]
USP28
  pIC50: 5.70 to 6.70
USP25
  pIC50: 5.70 to 6.70

## Cc1cnc2c(N)c(C(=O)NC[C@H](C)c3ccc(N4CC5CCC(C4)N5)c(F)c3)sc2n1 (single isomer, unassigned) [Compound I-13]
USP28
  pIC50: 5.70 to 6.70
USP25
  pIC50: 5.00 to 5.70

## Cc1cnc2c(N)c(C(=O)NCCc3ccc(N4CC5CCC(C4)N5)c(F)c3)sc2n1 [Compound I-6]
USP28
  pIC50: > 6.70
USP25
  pIC50: > 6.70

## CCc1cnc2c(N)c(C(=O)NCCc3ccc(N4CC5CCC(C4)N5)cc3)sc2n1 [Compound I-23]
USP28
  pIC50: 5.00 to 5.70
USP25
  pIC50: 5.70 to 6.70
